Source: paper PMC3366211, “Leishmanicidal Activity of Nine Novel Flavonoids from Delphinium staphisagria” (The Scientific World Journal, 2012)
Where two headings read alike, the source gives them in different places.

What was measured:
[1] = test system: L. braziliensis axenic amastigote forms; experiment: Axenic amastigote forms assay; format: cell-based, Leishmania braziliensis; conditions: for IC50: 48 hours per method (72 h); for SI Axenic amastigote forms: IC50 macrophages/IC50 parasite form; for number of times that compound SI exceeds the reference drug SI, Axenic amastigote forms: in brackets, reference Glucantime
Procedure: (§1) Axenic amastigotes forms of L. infantum and L. braziliensis were cultured following the methodology described previously by Moreno et al.. Thus, promastigote transformation to amastigotes was obtained after three days of culture in M199 medium (Invitrogen, Leiden, The Netherlands) supplemented with 10% heat-inactivated FCS, 1 g/L β-alanine, 100 mg/L L-asparagine, 200 mg/L sacarose, 50 mg/L sodium pyruvate, 320 mg/L malic acid, 40 mg/L fumaric acid, 70 mg/L succinic acid, 200 mg/L α-ketoglutaric acid, 300 mg/L citric acid, 1.1 g/L sodium bicarbonate, 5 g/L MES, 0.4 mg/L hemin, and 10 mg/L gentamicin pH 5.4 at 37°C. The effect of each compound against axenic amastigotes forms was tested at 48 hours using a Neubauer haemocytometric chamber. The antileishmanial effect is expressed as the IC50.

[2] = test system: J774.2 macrophages; experiment: Cytotoxicity test for macrophages (flow cytometry); format: cell-based, BALB/c rat; conditions: J774.2 macrophages after 72 h of culture, read-out: Macrophage toxicity IC50
Procedure: J774.2 macrophages (ECACC number 91051511) were originally obtained from a tumour in a female BALB/c […] in 1968. The cytotoxicity test for macrophages was performed according to the methodology of González et al.. After 72 hours of treatment, cell viability was determined by flow cytometry. Thus, 100 μL/well of propidium iodide solution ([…]) was added and incubated for 10 min at 28°C in darkness. Afterwards, 100 μL/well of fluorescein diacetate (100 ng/mL) was added and incubated under the same conditions. Finally, the cells were recovered by centrifugation at 400 g for 10 min and the precipitate washed with phosphate buffered saline (PBS). Flow cytometric analysis was performed with a FACSVantage flow cytometer (Becton Dickinson). The percentage viability was calculated in comparison with the control culture. The IC50 was calculated using linear regression analysis from the Kc values of the concentrations employed.

[3] = test system: L. infantum; experiment: Infection assay in J774.2 macrophages; format: cell-based, Leishmania infantum; conditions: IC25 concentration; for infection rate decrease, percentage of inhibition capacity: with respect to control
Procedure: (§2) J774.2 macrophage cells were grown under the same conditions expressed in amastigote forms assay during two days. Afterwards, the cells were infected in vitro with promastigote forms of L. infantum and L. braziliensis, at a ratio of 10 : 1. The drugs (IC25 concentrations) were added immediately after infection and were incubated for 12 hours at 37°C in 5% CO2. The nonphagocytosed parasites and the drugs were removed by washing, and then the infected cultures were grown for 10 days in fresh medium. Fresh culture medium was added every 48 h. The drug activity was determined from the percentage of infected cells and the number of amastigotes per infected cell (in treated and untreated cultures) in methanol-fixed and Giemsa-stained preparations. The percentage of infected cells and the mean number of amastigotes per infected cell were determined by analyzing 200 host cells distributed in randomly chosen microscopic fields. Values are the average of three separate determinations.

[4] = test system: L. braziliensis; experiment: Infection assay in J774.2 macrophages; format: cell-based, Leishmania braziliensis; conditions: IC25 concentration; for infection rate decrease, percentage of inhibition capacity: with respect to control
Procedure: as §2

[5] = test system: L. infantum axenic amastigote forms; experiment: Axenic amastigote forms assay; format: cell-based, Leishmania infantum; conditions: for IC50: 48 hours per method (72 h); for SI Axenic amastigote forms: IC50 macrophages/IC50 parasite form; for number of times that compound SI exceeds the reference drug SI, Axenic amastigote forms: in brackets, reference Glucantime
Procedure: as §1

[6] = test system: L. infantum promastigote forms; experiment: Promastigote forms assay; format: cell-based, Leishmania infantum; conditions: for IC50: 72 h; for SI Promastigote forms: IC50 macrophages/IC50 parasite form; for times SI exceeds the reference drug SI (all forms): extracellular and intracellular forms; for times SI exceeds the reference drug SI (all forms) / number of times that compound SI exceeds the reference drug SI, Promastigote forms: reference Glucantime; for number of times that compound SI exceeds the reference drug SI, Promastigote forms: in brackets
Procedure: (§3) The compounds obtained were dissolved in the culture medium, at dosages of 100, 50, 25, 10, and 1 μM. The effects of each compound against promastigote forms were tested at 72 hours using a Neubauer haemocytometric chamber. The antileishmanial effect is expressed as the IC50, that is, the concentration required to give 50% inhibition, calculated by linear regression analysis from the Kc values of the concentrations employed.

[7] = test system: L. braziliensis promastigote forms; experiment: Promastigote forms assay; format: cell-based, Leishmania braziliensis; conditions: for IC50: 72 h; for SI Promastigote forms: IC50 macrophages/IC50 parasite form; for number of times that compound SI exceeds the reference drug SI, Promastigote forms: in brackets, reference Glucantime
Procedure: as §3

[8] = test system: L. braziliensis intracellular amastigote forms; experiment: Intracellular amastigote forms assay in J774.2 macrophages; format: cell-based, Leishmania braziliensis; conditions: for IC50: L. braziliensis in J774.2 macrophages, 72 h; for SI Intracellular amastigote forms / number of times that compound SI exceeds the reference drug SI, Intracellular amastigote forms: L. braziliensis; for SI Intracellular amastigote forms: IC50 macrophages/IC50 parasite form; for number of times that compound SI exceeds the reference drug SI, Intracellular amastigote forms: in brackets, reference Glucantime
Procedure: (§4) Cells were seeded at a density of 1 × 10^4 cells/well in 24-well microplates (Nunc) with rounded coverslips on the bottom and cultured for 2 days. Afterwards the cells were infected in vitro with promastigote forms of L. infantum and L. braziliensis, at a ratio of 10 : 1 during 24 hours. The non-phagocytosed parasites were removed by washing, and then the drugs (at 1, 10, 25, 50, 100 μM) were added. Macrophages with the drugs were incubated for 72 hours at 37°C in 5% CO2.
(§5) Drug activity was determined on the basis of number of amastigotes in treated and untreated cultures in methanol-fixed and Giemsa-stained preparations. The number of amastigotes was determined by analyzing 200 host cells distributed in randomly chosen microscopic fields. The antileishmanial effect is expressed as the IC50 values are the means of three separate determinations.

[9] = test system: L. infantum intracellular amastigote forms; experiment: as above; format: cell-based, Leishmania infantum; conditions: for IC50: L. infantum in J774.2 macrophages, 72 h; for SI Intracellular amastigote forms / number of times that compound SI exceeds the reference drug SI, Intracellular amastigote forms: L. infantum; for SI Intracellular amastigote forms: IC50 macrophages/IC50 parasite form; for number of times that compound SI exceeds the reference drug SI, Intracellular amastigote forms: in brackets, reference Glucantime
Procedure: as §4, §5

[10] = test system: L. infantum promastigotes; experiment: Ultrastructural alterations (TEM); format: cell-based, Leishmania infantum; conditions: IC25, 96 hours
Procedure: (§6) The parasites were cultured at a density of 5 × 10^5 cells/mL in MTL medium, and the cultures contained drugs at the IC25 concentration.
(§7) After 96 hours, those cultures were centrifuged at 400 g for 10 min, and the pellets produced were washed in PBS and then mixed with 2% (v/v) P-formaldehyde-glutaraldehyde in 0.05 M cacodylate buffer (pH 7.4) for 4 hours at 4°C. After that, the pellets were prepared for TEM employing the technique of González et al..

[11] = test system: L. infantum promastigotes; experiment: Metabolite excretion (1H-NMR); format: cell-based, Leishmania infantum; conditions: IC25, 96 hours, vs control
Procedure: Cultures of L. infantum and L. braziliensis promastigotes (initial concentration 5 × 10^5 cells/mL) received IC25 concentrations of the compounds (except for control cultures). After incubation for 96 hours at 28°C, the cells were centrifuged at 400 g for 10 min. Then supernatants were collected to determine the excreted metabolites using ^1H-NMR, and, eventually, chemical displacements were expressed in parts per million (ppm), using sodium 2,2-dimethyl-2-silapentane-5-sulphonate as the reference signal. The chemical displacements used to identify the respective metabolites were consistent with those described by Fernández-Becerra et al.

[12] = test system: L. braziliensis promastigotes; experiment: Ultrastructural alterations (TEM); format: cell-based, Leishmania braziliensis; conditions: IC25, 96 hours
Procedure: as §6, §7

Compound	IC50 [1]	SI Axenic amastigote forms [1]	IC50 [2]	decrease of average number of amastigotes per infected macrophage cell [3]	infection rate decrease, percentage of inhibition capacity [3]	decrease of average number of amastigotes per infected macrophage cell [4]	infection rate decrease, percentage of inhibition capacity [4]	IC50 [5]	SI Axenic amastigote forms [5]	IC50 [6]	SI Promastigote forms [6]	SI Promastigote forms [7]	SI Intracellular amastigote forms [9]	number of times that compound SI exceeds the reference drug SI, Axenic amastigote forms [5]	times SI exceeds the reference drug SI (all forms) [6]	number of times that compound SI exceeds the reference drug SI, Promastigote forms [6]	number of times that compound SI exceeds the reference drug SI, Promastigote forms [7]	SI Intracellular amastigote forms [8]	number of times that compound SI exceeds the reference drug SI, Intracellular amastigote forms [8]	number of times that compound SI exceeds the reference drug SI, Intracellular amastigote forms [9]	other results
meglumine antimoniate [Glucantime, reference compound]	30.4 ± 6.1 µM	0.5	15.2 ± 1.3 µM	12%	63%	33%	58%	24.2 ± 2.6 µM	0.6	18 ± 3.1 µM	0.8	0.6	0.5								IC50 [7]: 25.6 ± 1.6 µM; IC50 [8]: 31.1 ± 3 µM; IC50 [9]: 30 ± 2.7 µM
paeonoside [Compound 4]	23.7 ± 2.1 µM	42.2	> 1000 µM	37%	77%	61%	68%	26.9 ± 1.4 µM	37.2	25.1 ± 1.9 µM	39.8	35.6	31.8	62	more than 50 times	50	59	30.6	61	64	ultrastructural alterations by TEM [10]: many of the parasites appeared dead, while another showed pronounced vacuolization; number of times that compound SI exceeds the reference drug SI, Axenic amastigote forms [1]: 84; change in excreted catabolites [11]: an increase in the excretion of succinate, and acetate, followed by malate, alanine, lactate and ethanol; ultrastructural alterations by TEM [12]: expansion of the kinetoplast, which appeared swollen; IC50 [7]: 28.1 ± 5.2 µM; IC50 [8]: 32.7 ± 2.1 µM; IC50 [9]: 31.4 ± 2 µM
CC(=O)OC[C@H]1O[C@@H](Oc2c(-c3ccc(OC(C)=O)c(OC(C)=O)c3)oc3cc(O[C@@H]4O[C@@H](C)[C@H](OC(C)=O)[C@@H](OC(C)=O)[C@H]4OC(C)=O)cc(OC(C)=O)c3c2=O)[C@H](OC(C)=O)[C@@H](OC(C)=O)[C@@H]1OC(C)=O [Compound 9, petiolaroside decacetate]		19.9							22.8		21.5	15.2	15.8	38	< 50 times	27	25	23.3	47	32	IC50 ([1]; Leishmania braziliensis): 24.6 ± 1.3 µM; number of times that compound SI exceeds the reference drug SI, Axenic amastigote forms [1]: 40; IC50 ([2]; Mus musculus, J774.2, 72 h): 490 ± 22.4 µM; IC50 ([5]; Leishmania infantum): 21.5 ± 0.9 µM; IC50 ([6]; Leishmania infantum): 22.8 ± 1.7 µM; IC50 ([7]; Leishmania braziliensis): 32.3 ± 3.3 µM; IC50 ([8]; Leishmania braziliensis): 21 ± 1.3 µM; IC50 ([9]; Leishmania infantum): 31 ± 1.7 µM
CC(=O)O[C@H]1[C@H](Oc2c(-c3ccc(O)cc3)oc3cc(O[C@@H]4O[C@H](CO)[C@@H](O)[C@H](O)[C@H]4O)cc(O)c3c2=O)O[C@H](CO)[C@@H](O)[C@@H]1O [Compound 5, 2′′-acetylpaeonoside]				45%	79%	72%	79%		33.6		40.7	29.3	26.9	56	more than 50 times	51	49	20.0	40	54	ultrastructural alterations by TEM [10]: produced similar effects; IC50 ([1]; Leishmania braziliensis): 19.4 ± 0.9 µM; change in excreted catabolites [11]: an increase in the excretion of succinate, and acetate, followed by malate, alanine, lactate and ethanol; ultrastructural alterations by TEM [12]: no significant changes compared to the control; IC50 ([5]; Leishmania infantum): 29.8 ± 2.2 µM; IC50 ([6]; Leishmania infantum): 24.6 ± 3.7 µM; IC50 ([7]; Leishmania braziliensis): 34.1 ± 6.6 µM; IC50 ([8]; Leishmania braziliensis): 50.9 ± 6.2 µM; IC50 ([9]; Leishmania infantum): 37.2 ± 3.5 µM
